Source: ChEMBL document CHEMBL1143735, “Synthesis, anti-HIV activity, and resistance profile of thymidine phosphonomethoxy nucleosides and their bis-isopropyloxymethylcarbonyl (bisPOC) prodrugs” (Bioorg Med Chem, 2007)

Experiments:
[1] = tested on: Human immunodeficiency virus 1; assay: Inhibition of virus-induced cytopathic effect in wild type HIV 3a infected MT2 cells after 5 days; format: functional, organism-based; details: Human immunodeficiency virus 1, 3a, MT2, 120 h
[2] = biological target: Human immunodeficiency virus type 1 reverse transcriptase (Human immunodeficiency virus 1, UniProt Q72547); assay: Inhibition of HIV1 reverse transcriptase
[3] = Cytotoxicity against MT2 cells; format: cell-based; details: human
[4] = tested on: Human immunodeficiency virus 1; assay: Antiviral activity against HIV1 with reverse transcriptase 6TAM mutation assessed as reduction of potency relative to wild type; format: functional
[5] = tested on: Human immunodeficiency virus 1; assay: Antiviral activity against HIV1 with reverse transcriptase K65R mutation assessed as reduction of potency relative to wild type; format: functional
[6] = tested on: Human immunodeficiency virus 1; assay: Antiviral activity against HIV with reverse transcriptase M184V mutation assessed as reduction of potency relative to wild type; format: functional

Structure (SMILES)	EC50 [1] [µM]	IC50 [2] [µM]	CC50 [3] [µM]	Fold change [4]	Fold change [5]	Fold change [6]
Cc1cn([C@H]2C=C[C@@H](OCP(=O)(O)O)O2)c(=O)[nH]c1=O	26	0.39	> 500	13	5.2	1.1
Cc1cn([C@H]2CC[C@@H](OCP(=O)(O)O)O2)c(=O)[nH]c1=O	> 200	5.4	> 500			
Cc1cn([C@H]2CC[C@@H](OCP(=O)(OCOC(=O)OC(C)C)OCOC(=O)OC(C)C)O2)c(=O)[nH]c1=O	1.3		> 50			
Cc1cn([C@H]2CC[C@@H](OCP(=O)(O)O)O2)c(=O)[nH]c1=O.O=P(O)(O)OP(=O)(O)O	> 200	5.4	> 500			
Cc1cn([C@H]2C[C@H](N=[N+]=[N-])[C@@H](OCP(=O)(O)O)O2)c(=O)[nH]c1=O	> 200					
Cc1cn([C@H]2C=C[C@@H](OCP(=O)(OCOC(=O)OC(C)C)OCOC(=O)OC(C)C)O2)c(=O)[nH]c1=O	0.91		10			
Cc1cn([C@H]2CC[C@@H](CO)O2)c(=O)[nH]c1=O	> 200	0.12				
Cc1cn([C@H]2C=C[C@@H](COP(=O)(O)OP(=O)(O)OP(=O)(O)O)O2)c(=O)[nH]c1=O [STAVUDINE TRIPHOSPHATE]	26	0.39	> 500	13	5.2	1.1
Cc1cn([C@H]2C=C[C@@H](CO)O2)c(=O)[nH]c1=O [STAVUDINE]	4.8	0.06	286	5.5	2.3	1.2
C[C@H](Cn1cnc2c(N)ncnc21)OCP(=O)(O)O [TENOFOVIR ANHYDROUS]		0.38	> 200	8.8	4.3	0.7
CC(C)OC(=O)OCOP(=O)(CO[C@H](C)Cn1cnc2c(N)ncnc21)OCOC(=O)OC(C)C.O=C(O)/C=C/C(=O)O [TENOFOVIR DISOPROXIL FUMARATE]	0.015		> 50	7.7	3.1	
Cc1cn([C@H]2C[C@H](N=[N+]=[N-])[C@@H](CO)O2)c(=O)[nH]c1=O [ZIDOVUDINE]			> 200			
